“And” between values parts separate entries of the source, which are not always exact repeats. Equal entries are not always repeated.
Columns and labels:
Type in all cases: in vivo, human
[1] = test system: feedback sensitivity of the HPA-axis; assay: Dexamethasone suppression test (DST): serum cortisol after DEX; conditions: mean
Description: A total of 202 human subjects participated in the study. Their age varied between 53 and 82 years ([…] with mean ages of 67.7±0.6 and 65.9±0.6 years, respectively). They were living in a suburb of Rotterdam, The Netherlands. These subjects were participants in the Rotterdam Study, a population-based cohort study (7983 subjects) of the determinants of chronic disabling diseases in the elderly and were selected at random. Subjects with acute, psychiatric or endocrine diseases, including diabetes mellitus treated with medication were not invited. Compared to all participants of the Rotterdam study, there were no differences in age and gender distribution and cardiovascular risk factors. The subjects gave their written consent to participate in the study, which received the approval of the Medical Ethics Committee of the Erasmus University Medical School. In order to get more information about the individual variability of the feedback sensitivity of the HPA-axis all 202 subjects were invited for a second DST with a lower dose DEX (0.25 mg) two and a half years later. 149 subjects agreed to participate in this second test (72 men and 77 women).
(§1) The two dexamethasone suppression tests (DST) were performed as described previously (Huizenga et al, J.Clin.Endocrinol Metab.1998; 83(1): 47-54). In brief, venous blood was obtained in the morning between 8 and 9 am after an overnight fast for serum cortisol and insulin measurements. Participants were instructed to ingest a tablet of 1 mg (and 0.25 mg, respectively) DEX at 11.00 pm. The next morning fasting blood was drawn by venapuncture at the same time as the previous morning. To check for compliance and possible abnormalities in the metabolism of DEX, the DEX concentration was also measured in a radioimmunoassay using antiserum obtained from IgG Corporation (Nashville, Tenn.). Intra- and interassay variations were below 8.5% and 14.2% respectively.
(§2) Serum cortisol concentrations were determined using RIA-kits obtained from Diagnostics Products Corporation (Los Angeles, Calif.). Intra- and interassay variations were below 8.0% and 9.5% respectively. Circulating insulin and cortisol binding globulin concentrations were determined using commercially available ratioimmunoassays (Medgenix Diagnostics, Brussels, Belgium). Intra- and interassay variations were 8.0% and 13.7% respectively. Estradiol, androstenedione and DHEAS concentrations were determined using RIA-kits obtained from Diagnostics Products Corporation. Intra- and interassay variations; estradiol: 7.0% and 8.1% androstenedione: 8.3% and 9.2%, DHEAS: 5.3% and 7.0% SHBG was assayed with an commercially available immunoradiometric assay (Diagnostics Products Corporation; intra- and interassay variations were 3.6% and 6.9% respectively). Testosterone was measured with a non-commercial radioimmunoassay (intra- and interassay variations 3.6% and 6.9%). Commercially available immunoradiometric assays were used for the measurement of IGF-BP1 (Diagnostic System Laboratories Inc.; intra- and interassay variations 4.0% and 6.0%).

[2] = DEX concentration by radioimmunoassay after DST; conditions: mean
Method: as §1

[3] = Fasting serum insulin after DEX administration (DST); conditions: for Post DEX insulin / Δ insulin: mean
Method: as §1, §2

[4] = Fasting glucose after DEX administration (DST); conditions: 0.25 mg DEX
Method: as §1
Glucose, total cholesterol, HDL-chlesterol and triglycerides were measured using standard laboratory methods. Low density lipoprotein (LDL)-cholesterol was calculated using the following formula: LDL-cholesterol=total cholesterol−((triglycerides/5)+HDL-cholesterol).

[5] = 0.25 mg DEX, ER22/23EK-carriers (n = 13), second examination
[6] = 0.25 mg DEX, non-carriers (n = 136), second examination

Compound: C[C@@H]1C[C@H]2[C@@H]3CCC4=CC(=O)C=C[C@]4(C)[C@@]3(F)[C@@H](O)C[C@]2(C)[C@@]1(O)C(=O)CO [DEX, dexamethasone]
- PostDEX cortisol [1, 5]: 267.5 nmol/L
- Δ cortisol [1, 5]: 259.7 nmol/L
- PostDEX cortisol [1, 6]: 259.5 nmol/L
- Δ cortisol [1, 6]: 285.8 nmol/L
- PostDEX cortisol ([1]; 1 mg DEX oral at 11.00 pm, next morning fasting, ER22/23EK-carriers (n = 18), first examination): 57.9 nmol/L
- PostDEX cortisol ([1]; 1 mg DEX oral at 11.00 pm, next morning fasting, non-carriers (n = 184), first examination): 33.3 nmol/L
- Δ cortisol ([1]; cortisol suppression in reaction to 1 mg DEX, ER22/23EK-carriers (n = 18)): 504.9 nmol/L
- Δ cortisol ([1]; cortisol suppression in reaction to 1 mg DEX, non-carriers (n = 184)): 481.4 nmol/L
- DEX concentration ([2]; morning after 0.25 mg DEX, ER22/23EK-carriers (n = 13)): 2.88 nmol/L
- DEX concentration ([2]; morning after 0.25 mg DEX, non-carriers (n = 136)): 2.85 nmol/L
- DEX concentration ([2]; morning after 1 mg DEX, ER22/23EK-carriers (n = 18)): 6.63 nmol/L
- DEX concentration ([2]; morning after 1 mg DEX, non-carriers (n = 184)): 7.32 nmol/L
- Post DEX insulin ([3]; 0.25 mg DEX, ER22/23EK-carriers (n = 10), second examination): 10.0 mU/l
- Post DEX insulin ([3]; 0.25 mg DEX, non-carriers (n = 105), second examination): 14.2 mU/l
- insulin level after DEX administration ([3]; 0.25 mg DEX, total group of 115 subjects, 14.7 before, p=0.02): 13.9±0.50 mU/L
- Post DEX insulin ([3]; 1 mg DEX, ER22/23EK-carriers (n = 15), first examination): 14.4 mU/l
- insulin concentration after DEX administration ([3]; 1 mg DEX, all 182 subjects together, 11.5±5.15 before, p<0.001): 17.2±8.41 mU/L
- Post DEX insulin ([3]; 1 mg DEX, non-carriers (n = 167), first examination): 17.4 mU/l
- Δ insulin ([3]; change in response to 0.25 mg DEX, ER22/23EK-carriers (n = 10)): 0.01 mU/l
- Δ insulin ([3]; change in response to 0.25 mg DEX, non-carriers (n = 105)): −0.92 mU/l
- Δ insulin ([3]; change in response to 1 mg DEX, ER22/23EK-carriers (n = 15)): 5.5±1.3 mU/l and 5.5 mU/l
- Δ insulin ([3]; change in response to 1 mg DEX, non-carriers (n = 167)): 5.7±0.6 mU/l and 5.7 mU/l
- glucose concentration after the 0.25 mg DST ([4]; ER22/23EK-carriers): 5.3 ± 0.17 mmol/L
- glucose concentration after DST ([4]; all subjects, 5.6±0.06 before, p=0.004): 5.5 ± 0.05 mmol/L
- glucose concentration after the 0.25 mg DST ([4]; non-carriers): 5.5 ± 0.05 mmol/L

From patent US20040259104A1, “Test” (priority 2002, published 2004)
